Patent publication US7935726B1, “Tricyclic pyrones” (Kansas State University Research Foundation, priority 1999, dated 2011)
Like-named read-outs stand apart in the source and are kept apart here. One block for each molecule: values may come before it.

Tests used:
[1] = canine study: polyol level in dog lens (GC/MS); type: in vivo, Beagle dogs
Procedure: (§1) A pilot study was conducted to determine initial toxicity and efficacy in a Beagle model. The study was conducted at the fully accredited facility at the Kansas State University Veterinary Clinic. The dogs were fed a 40% galactose diet for 6 weeks. These dogs developed cataracts. Compound 1 was administered orally at 100 mg/kg body weight/day for 6 weeks. At this dose, the polyol levels were 50% normalized (FIG. 4) and PKCγ levels were 80% normalized (FIG. 5). […] The PkC-γ levels of dogs treated with galactose is 30.8%, G+I is 84.1% and C+I is 79.7%. Additional testing at higher doses is planned to determine optimal dose for efficacy with no or low toxicity. These experiments are well within the skill and experience of one of ordinary skill in the art and can be performed without undue experimentation.

[2] = molecular target: T1, Human aldose reductase (AR) (Homo sapiens, UniProt P15121); assay: human AR inhibition assay (enzyme assay, NADPH absorption at 340 nm); type: biochemical; settings: Table 3; average of three assays; read-out: IC50, Inhibition of Human Retina Aldose Reductase
T1 construct: made in house; host or cells: E. coli
Procedure: Human aldose reductase (AR) was obtained from overexpression of the human AR gene in an E coli system and was purified by column chromatography using a talon metal affinity column and eluted with a gradient mixture of Tris, NaCl buffer and imidazole solution. The human AR inhibition assay was conducted as follows. In a sample cuvette, 25 mM of D-xylose (75 mg/mL) and 0.15 mM of reduced nicotinamide adenine dinucleotide phosphate (NADPH) (4 mg/mL), and various amount of the inhibitor [in PBS (phosphate buffer saline) solution; the concentration of the inhibitor was determined using UV spectroscopy based on εmax at λmax of the drug] in 700 uL of PBS (a solution made of 1.44 g of Na2HPO4, 0.24 g KH2PO4, 0.2 g KCl, and 8 g NaCl in 1 L of distilled water) buffer (pH=6.1) solution and 200 uL of the AR enzyme (a final volume of 1 mL was obtained). The intensity of absorption of NADPH (λmax=340 nm) was measured. When xylose is reduced to xylitol, NADPH is converted into NADP and the absorption at 340 nm decreases. When AR is inhibited by the drug, the absorption at 340 nm of NADPH remains unchanged. Each assay was repeated three times and an average IC50 value was obtained.

[3] = pathology studies in treated rats; type: in vivo; settings: 100 mg/Kg body weight per day, 9 days
[4] = test system: N/N 1003 lens epithelial cells; assay: tissue culture assay: galactitol formation from galactose in lens epithelial cells (GC/MS); type: cell-based; settings: for inhibition at 10 µM: 10 uM inhibitor, 40 mM galactose media, lens epithelial cells, number of trials in parenthesis
Procedure: The activity of the drugs is tested in various ways, including tissue culture assays and assays testing aldose reductase inhibition. For the tissue culture assay, a lens epithelial cell line is grown in galactose with or without the drug. Cells are tested for polyol accumulation by GC/mass spectrometry. Levels of PKC are tested in homogenized cell pellets or in samples of lens, retina or sciatic nerves from treated patients. Tissue is homogenized and tested for PKCγ levels using Western blots. These procedures are described in more detail below.
The ability of the drugs to inhibit galactitol formation from galactose was also studied in N/N 1003 lens epithelial cells. Two sets of lens cells were grown in media with […] 40 mM galactose. Various concentrations of inhibitors were added initially and the cells were grown for 48 hours. The cells were lysed and galactose and galactitol were extracted out and the concentrations were determined using gas chromatography and mass spectrometry by silylating the crude extract with excess of trimethylsilyl chloride, trimethylsilyl imidazole and pyridine at 70° C. for 1 h.
40 mM galactose media was supplemented with 10 uM inhibitor and fed to lens epithelial cells for 48 hours.

[5] = test system: bovine lens epithelial cells; assay: toxicity in bovine lens epithelial cells; type: cell-based; settings: up to 100 uM added to bovine lens epithelial cells
PKC-γ [6] = assay: galactose-fed rats: PKC-γ levels in lens and sciatic nerve (Western blot); type: in vivo, Sprague Dawley Rats; settings: high galactose feed, 100 mg/Kg body weight per day, FIG. 3B
Procedure: In order to test for in vivo effects of ARI's, rats were fed a 40% galactose diet for 9 days and the accumulation of galactitol was measured in lens tissue. This tissue has high aldose reductase activity and the eye has a separate vasculature. Thus, if the ARI works in the lens this is a good indication that the drug works and can penetrate to most tissues.
The specific experimental details follow. […] The rats were given food supplemented with inhibitor in the morning and then given food and water ad libitum the rest of the day. They were kept on a 12-hour on and 12-hour off light cycle. After 9 days, the rats were sacrificed with an overdose of CO2 and then eyes were taken and immediately frozen on dry ice for later polyol and PKC analyses. Experiments on all rats conformed to the ARVO resolution on the Use of Animals in Research.
The lenses were removed from the enucleated eyes and weighed. They were put in 200 μL lysis buffer (50 mM Tris, 100 mM NaCl, M-Per Pierre Zwitterionic detergent, 5 mM NaF, 1 mM Na3VO4, 40 mM β-glycerophosphate, 6 μg/mL chymotrypsin, 10 μM3,4-dichlorocoumarin, 10 μM E-64, 1 μg/mL leupeptin, 1 μg/mL pepstatin A, 1 μg/mL aprotinin, 1 mM PMSF, and 5 mM EDTA (Sigma). The lenses were then ground using a tissue grinder until they were a uniformly white solution. They were then sonicated to make certain all the cells were disrupted. The mixture was then centrifuged for 20 minutes at 0° C. at […]. The supernatant was then analyzed for protein content using […] (Pierce). Equal amounts of protein were loaded and separated on a 10% SDS polyacrylamide gel. The proteins were transferred to nitrocellulose (Midwest Scientific; pore size 0.45 μm). The western was blocked with a 3% milk solution, and then mouse anti-PKC γ (1:5000) or PKC α (1:1000) antisera (Transgenic Laboratories) were applied in a 3% milk solution overnight. […]
The effects of streptozotocin induced diabetes on PKC-γ levels in rat lens have been measured. […]

PKC-γ [7] = assay: canine study: PKC-γ level of dog lens (Western blot); type: in vivo, Beagle dogs
Procedure: as §1

L1210 tumor cells = assay: cytotoxicity to L1210 tumor cells; type: cell-based
Source text: (§2) The reported procedures for the inhibitory activities of ACAT (Tomoda, H.; Nishida, H.; Masuma, R.; Cao, J.; Okuda, S.; Omura, S. J. Antibiot. 1991, 44, 136-143), CETP (Tomoda, H.; Tabata, N.; Masuma, R.; Si, S.-Y.; Omura, S. J. Antibiot. 1998, 51, 618-623; D. H. Hua et al. Tetrahedron 2003, 59, 4795-4803), L1210 tumor cells (Perchellet, E. M.; Ladesich, J. B.; Magill, M. J.; Chen, Y.; Hua, D. H.; Perchellet, J. P. Anti-Cancer Drugs 1999, 10, 489-504), and APP C99-induced cell death (Jin, L.-W.; Hua, D. H.; Shie, F.-S.; Maezawa, I.; Sopher, B.; Martin, G. M. J. Mol. Neurosci. 2002, 19, 57-61) were followed.

caspase 103 = assay: in vitro caspase substrate study (release of p-nitroaniline); type: biochemical
Source text: (§3) ACAT mediates the esterification of intracellular cholesterol and is believed to play a key role in lipoprotein metabolism and atherogenesis (for a review: Suckling, K. E.; Stange, E. F. J. Lipid Res. 1985, 26, 647-671). […] The inhibition of CETP with these three compounds was then studied. CETP, a hydrophobic neutral glycoprotein, mediates the transfer of cholesteryl ester from high-density lipoprotein to low-density lipoprotein (For a review: Tall, A. R. J. Lipid Res. 1993, 34, 1255-1274). […] The N-(p-nitrophenyl)aspartamide portion of 104 was attached in order to study whether 104 was a substrate of […] (For a review: VIIIa, P.; Kaufmann, S. H.; Earnshaw, W. C. Trends Biochem. Sci. 1997, 22, 388-393). […] Compound 105 is cytotoxic to L1210 tumor cells, with IC50=30 μM. Aggarwal et al., J. Chem. Soc., Perkin Trans I (1999) 3315-3321 is incorporated by reference to the extent not inconsistent with the disclosure herewith.

MC65 cells = assay: protection from APP C99-induced cell death in MC65 cells; type: cell-based; settings: for EC50: MC65 cells in the absence of tetracycline
Source text: as §2, with “followed. […]” for “followed.”

CETP = molecular target: T2, CETP (Homo sapiens, UniProt P11597); assay: inhibition of CETP; type: biochemical
T2 sequence (P11597 18-493): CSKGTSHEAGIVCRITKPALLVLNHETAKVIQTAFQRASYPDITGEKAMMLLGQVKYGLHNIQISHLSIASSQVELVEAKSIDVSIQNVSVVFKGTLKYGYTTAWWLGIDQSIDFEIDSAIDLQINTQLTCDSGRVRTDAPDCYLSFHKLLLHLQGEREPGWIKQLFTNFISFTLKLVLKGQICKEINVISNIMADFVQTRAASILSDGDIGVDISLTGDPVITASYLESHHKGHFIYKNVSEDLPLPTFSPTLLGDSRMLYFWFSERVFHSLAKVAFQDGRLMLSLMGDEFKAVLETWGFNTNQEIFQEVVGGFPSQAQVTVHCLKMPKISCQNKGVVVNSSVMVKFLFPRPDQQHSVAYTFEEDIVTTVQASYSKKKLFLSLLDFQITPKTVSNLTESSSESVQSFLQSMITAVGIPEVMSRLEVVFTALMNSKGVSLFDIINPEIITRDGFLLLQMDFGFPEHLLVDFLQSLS
Source text: as §2, §3

ACAT = assay: inhibition of ACAT; type: biochemical
[8] = Galactosemic dogs, with inhibitor
[9] = dogs, 40% galactose diet 6 weeks, orally 100 mg/kg body weight/day for 6 weeks

SMILES: O=C(O)Cc1cc2c(c(=O)o1)C=C1CCCCC1O2 (centres unmarked) [Compound 1, {1H,7H-5a,6,8,9-Tetrahydro-1-oxopyrano[4,3-b][1]benzopyran-3-yl}acetic acid]
Galactitol (polyol) (GC/MS, dog lens) [1, 8]: 27.3%
Galactose (GC/MS, dog lens) [1, 8]: 72.7%
polyol levels normalized [1, 9]: 50%
IC50 [2]: 0.002 µM
toxicity to the rats (pathology studies) [3]: not toxic to the rats
% galactitol ([4]; 1 uM compound 1, 40 mM galactose, 48 hours): 80%
% galactitol ([4]; 10 uM compound 1, 40 mM galactose, 48 hours): 30%
concentration of galactitol relative to galactose (GC/MS, FIG. 1B) ([4]; 10 uM, 40 mM galactose, 48 hours): decreases the concentration of galactitol relative to galactose
IC50 ([4]; Epithelial cell): 6 µM
inhibition at 10 µM ([4]; Epithelial cell, 48 hours): 80 ± 10%
toxicity [5]: no toxicity was found
PKC-γ levels in sciatic nerve cells (PKC-γ [6]): normalized
water solubility (water solubility): water soluble
PKC-γ level of dog lens (read-out of intensities, FIG. 5) (PKC-γ [7]; control with inhibitor 1 (C+I)): 79.7%
PKCγ levels normalized (PKC-γ [7]; [9]): 80%
PKC-γ level of dog lens (read-out of intensities, FIG. 5) (PKC-γ [7]; galactose and inhibitor 1 (G+I)): 84.1%

IC50 [2]: 0.02 µM
water solubility (water solubility): water soluble
SMILES: O=C(O)C(O)Cc1cc2c(c(=O)o1)C(O)C1CCCCC1O2 (centres unmarked) [Compound 2, 2-Hydroxy-3-{1H,7H-5a,6,8,9,10,11-hexahydro-10-hydroxy-1-oxopyrano[4,3-b][1]benzopyran-3-yl}-propanoic acid]
inhibition at 10 µM ([4]; Epithelial cell, 48 hours): < 10%
toxicity [5]: no toxicity was found

SMILES: CC(=O)OCC1(C)C(OC(C)=O)CCC2(C)C1CC(OC(C)=O)C1(C)Oc3cc(-c4cccnc4)oc(=O)c3C(O)C21 (centres unmarked) [Pyripyropene A, reference compound]
IC50 (L1210 tumor cells; Mus musculus, L1210, Table 9, read-out: C50, L1210 Leukemic Cells): > 100 µM

substrate of caspase 103 (release of p-nitroaniline) (caspase 103): not a substrate
IC50 (CETP): > 180 µM
IC50 (ACAT): 168 µM
SMILES: C=C(C)[C@H]1CCC2=Cc3c(cc(CC(=O)N[C@@H](CC(=O)O)C(=O)Nc4ccc([N+](=O)[O-])cc4)oc3=O)O[C@H]2C1 [Compound 104]
protection of MC65 cells from death (in words) (MC65 cells; MC65 cells conditionally expressing partial APP fusion protein, absence of tetracycline): protected from death
EC50 (MC65 cells): 2 µM

SMILES: Cc1cc2c(c(=O)o1)C=C1CC[C@@H](CC(C)n3cnc4c(N)ncnc43)C[C@@H]1O2 (mixture of isomers) [Compound 105, (5aS,7S)-7-[(1R) and (1S)-2-(N-9-Adenyl)-1-methylethyl]-3-methyl-1H,7H-5a,6,8,9-tetrahydro-1-oxopyrano[4,3-b][1]benzopyran]
fold less active than 106 (EC50) (MC65 cells; MC65 cells): 20 fold
EC50 (MC65 cells): 3 µM
IC50 (L1210 tumor cells; read-out: IC50, cytotoxic to L1210 tumor cells): 30 µM
